Reference: PMC9465710, “Identification of a BAZ2A-Bromodomain Hit Compound by Fragment Growing” (ACS Medicinal Chemistry Letters, 2022)
“And” between values parts separate entries of the source, which are not always exact repeats. Identical values can stand only once.

Assays:
BAZ2A bromodomain [1] = target: T1, BAZ2A bromodomain (Homo sapiens, UniProt Q9UIF9); assay: AlphaScreen competition binding assay (BAZ2A bromodomain binding to acetylated peptide)
T1 construct: made in house
T1 sequence (Q9UIF9 1793-1897 limits assumed): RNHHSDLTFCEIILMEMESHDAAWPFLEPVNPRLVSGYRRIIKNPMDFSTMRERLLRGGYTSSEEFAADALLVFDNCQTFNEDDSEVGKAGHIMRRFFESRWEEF
Procedure: The 36 selected molecules were tested by AlphaScreen at single doses in duplicate. Six molecules (compounds 8, 9, 11, 14, 18, and 25) decreased binding of BAZ2A bromodomain to the acetylated peptide by at least 50% when tested at 500 μM. […]
AlphaScreen assay was conducted as detailed in [11]. […]

BAZ2B bromodomain = target: T2, BAZ2B bromodomain (Homo sapiens, UniProt Q9UIF8); assay: AlphaScreen competition binding assay on the BAZ2B bromodomain; details: AlphaScreen dose-response, Figure S6
T2 sequence (Q9UIF8 2060-2164 limits assumed): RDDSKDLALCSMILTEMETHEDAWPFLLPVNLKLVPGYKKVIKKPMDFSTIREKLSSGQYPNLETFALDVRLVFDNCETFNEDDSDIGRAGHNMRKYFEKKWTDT
Procedure: (§1) Trigonal crystals were obtained by co-crystallization as described in the same work. Monoclinic crystals were obtained by co-crystallization with compound 4 of reference; a back-soaking procedure was then applied by incubating the crystal in the crystallization solution without inhibitors for 36-48 hours, and subsequently exposing it to the new ligand of interest for 12-24 hours.
(§2) Diffraction data were collected at the Elettra Synchrotron Light Source (Trieste, Italy), XRD1 and XRD2 beamlines, and at the ESRF (Grenoble, France), ID30-A1 beamline. Data were processed and structures were solved as described elsewhere. BAZ2A/cmp9 data have been corrected for diffraction anisotropy with STARANISO (https://staraniso.globalphasing.org/cgi-bin/staraniso.cgi).
(§3) Data collection and refinement statistics are reported in Suppl. Tables 3-6. Electron densities (2Fo-Fc polder OMIT map) for the bound inhibitors are shown in Suppl. Fig. 7.
(§4) AlphaScreen assay was conducted as detailed in [11]. All experiments were performed at least in […]
(§5) Isothermal Titration Calorimetry
(§6) ITC experiments were performed using an MicroCal PEAQ-IT C microcalorimeter (Malvern Panalytical , UK) at 25°C with a stirring speed of 750 rpm in 20mM Tris pH 7. 8, 0. 2 M NaCl, 0. 2 mM TCEP and 0. 25% DMSO. For each experiment, one 0. […]

BAZ2A bromodomain [2] = target: T1, BAZ2A bromodomain; assay: Isothermal titration calorimetry (ITC); type: binding; details: 25°C, 0.25% DMSO, racemic mixture, read-out: equilibrium dissociation constant (KD)
Procedure: as §1, §2, §3, §4, §5, §6

ligand efficiency (LE) (BAZ2A bromodomain [1]): 0.24 kcal/mol per heavy atom | lipophilic ligand efficiency (LLE) (BAZ2A bromodomain [1]): 4.0 | IC50 (BAZ2A bromodomain [1]; AlphaScreen dose-response): 4 ± 0.2 µM | increase in potency with respect to 47 (BAZ2A bromodomain [1]; from AlphaScreen IC50): 8 fold | IC50 (BAZ2B bromodomain): 33.5 µM | Kd (BAZ2A bromodomain [2]): 7.1 µM and 7 µM
Compound: CCc1c(-c2csc(N3CCNCC3C(=O)NCCc3ccno3)n2)[nH]c(C)c1C(C)=O (stereo not drawn) [Compound 104]
